In the supplement of paper PMC10307832:

Tests used:
Assay in all cases: relative viability (nuclei count vs DMSO), 5 days (fraction); higher = more cells survive
[1] = compound: C1/C(=C\C2=CC=CS2)/C(=O)/C(=C/C3=CC=CS3)/C1 + N=C(N)NC(=N)NCCc1ccccc1 [Phenformin] (partner 250 µM)
Method in brief: (§1)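 Dosing by pin tool came one day after lung cancer cell lines were seeded in 1536-well plates, using either one drug or a fixed anchor-drug dose plus five library-drug doses (not always all listed) in √10 steps. After 5 days, nuclei were counted on 4× images. Relative viability is treated-well nuclei count divided by vehicle-well nuclei count, and values are medians of duplicate plates.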

[2] = compound: C1/C(=C\C2=CC=CS2)/C(=O)/C(=C/C3=CC=CS3)/C1 + Nc1ncn([C@H]2C[C@H](O)[C@@H](CO)O2)c(=O)n1 [Decitabine] (partner 2 µM)
Method in brief: as §1

TPCA-1 + Alpelisib = compound: C1=CC(=CC=C1C2=CC(=C(S2)NC(=O)N)C(=O)N)F [TPCA-1] + Cc1nc(NC(=O)N2CCC[C@H]2C(N)=O)sc1-c1ccnc(C(C)(C)C(F)(F)F)c1 [Alpelisib] (partner 2 µM)
Method in brief: as §1

Lestaurtinib + Lapatinib = compound: C[C@]12O[C@H](C[C@]1(O)CO)n1c3ccccc3c3c4c(c5c6ccccc6n2c5c31)CNC4=O [Lestaurtinib] + CS(=O)(=O)CCNCc1ccc(-c2ccc3ncnc(Nc4ccc(OCc5cccc(F)c5)c(Cl)c4)c3c2)o1 [Lapatinib] (partner 2 µM)
Method in brief: as §1

Cell Line | relative viability ([1]; first compound 0.2 µM) | relative viability ([1]; first compound 0.6325 µM) | relative viability ([1]; first compound 2 µM) | relative viability ([1]; first compound 6.325 µM) | relative viability ([1]; first compound 20 µM) | relative viability ([2]; first compound 0.2 µM) | relative viability ([2]; first compound 0.6325 µM) | relative viability ([2]; first compound 2 µM) | relative viability ([2]; first compound 20 µM) | relative viability (TPCA-1 + Alpelisib; first compound 0.04 µM) | relative viability (TPCA-1 + Alpelisib; first compound 0.1265 µM) | relative viability (TPCA-1 + Alpelisib; first compound 0.4 µM) | relative viability (TPCA-1 + Alpelisib; first compound 1.265 µM) | relative viability (TPCA-1 + Alpelisib; first compound 4 µM) | relative viability (Lestaurtinib + Lapatinib; first compound 0.005 µM) | relative viability (Lestaurtinib + Lapatinib; first compound 0.01581 µM) | relative viability (Lestaurtinib + Lapatinib; first compound 0.05 µM) | relative viability (Lestaurtinib + Lapatinib; first compound 0.1581 µM) | relative viability (Lestaurtinib + Lapatinib; first compound 0.5 µM) | relative viability ([2]; first compound 6.325 µM)
NCI-H727 | 0.64 | 0.642 | 0.671 | 0.525 | 0.494 | 0.939 | 0.976 | 1.2 | 0.981 | 0.591 | 0.485 | 0.597 | 0.504 | 0.507 | 1.21 | 0.986 | 0.78 | 0.813 | 0.263 | 
HARA | 0.449 | 0.452 | 0.481 | 0.444 | 0.407 | 0.755 | 0.571 | 0.558 | 0.595 | 0.952 | 0.675 | 1.01 | 0.725 | 0.6 | 0.795 | 0.748 | 0.738 | 0.68 | 0.369 | 0.529
NCI-H2228 | 0.422 | 0.297 | 0.369 | 0.335 | 0.357 |  |  |  |  | 0.869 | 0.809 | 1.02 | 0.609 | 0.485 | 0.892 | 0.95 | 0.376 | 0.281 | 0.256 | 
LCLC-97TM1 | 0.389 | 0.473 | 0.437 | 0.476 | 0.482 | 0.25 | 0.241 | 0.219 | 0.19 | 0.249 | 0.241 | 0.223 | 0.248 | 0.187 | 1.18 | 1.18 | 0.767 | 0.196 | 0.163 | 0.173
LC-2-ad | 0.632 | 0.584 | 0.671 | 0.555 | 0.605 | 0.861 | 0.823 | 0.797 | 0.748 | 0.937 | 0.775 | 0.99 | 0.82 | 0.326 | 1.17 | 1.07 | 0.62 | 0.266 | 0.19 | 0.666
SK-LU-1 | 0.634 | 0.56 | 0.672 | 0.473 | 0.486 | 0.6 | 0.627 | 0.749 | 0.665 | 1.16 | 0.805 | 1 | 0.605 | 0.452 | 0.732 | 0.805 | 0.473 | 0.402 | 0.2 | 0.478
EKVX | 0.252 | 0.247 | 0.218 | 0.231 | 0.249 | 0.359 | 0.267 | 0.406 | 0.452 | 0.913 | 0.838 | 0.934 | 0.726 | 0.795 | 0.192 | 0.221 | 0.195 | 0.194 | 0.198 | 
HCC-827 | 0.426 | 0.414 | 0.433 | 0.411 | 0.388 | 0.316 | 0.38 | 0.377 | 0.308 | 1.09 | 0.933 | 1.08 | 0.905 | 0.491 | 0.201 | 0.197 | 0.212 | 0.188 | 0.192 | 0.28
NCI-H650 | 0.43 | 0.442 | 0.465 | 0.45 | 0.449 | 0.311 | 0.293 | 0.293 | 0.306 | 1.11 | 1.02 | 1.02 | 0.633 | 0.859 | 0.732 | 1.22 | 0.455 | 0.421 | 0.26 | 0.307
CAL-12T | 0.651 | 0.672 | 0.562 | 0.585 | 0.574 |  |  |  |  | 1.22 | 0.907 | 0.93 | 1.1 | 0.707 | 0.671 | 0.649 | 0.537 | 0.384 | 0.246 | 
NCI-H2342 | 0.535 | 0.63 | 0.689 | 0.524 | 0.519 | 0.819 | 0.73 | 0.713 | 0.653 |  |  |  |  |  |  |  |  |  |  | 0.752
SW 900 | 0.613 | 0.551 | 0.875 | 0.69 | 0.541 | 0.404 | 0.434 | 0.375 | 0.438 |  |  |  |  |  |  |  |  |  |  | 0.42
IA-LM |  |  |  |  |  |  |  |  |  | 0.912 | 0.619 | 0.729 | 0.892 | 0.677 | 1 | 1.06 | 0.91 | 0.905 | 0.396 | 
EPLC-272H | 0.289 | 0.318 | 0.298 | 0.238 | 0.276 | 0.379 | 0.349 | 0.446 | 0.339 | 1.09 | 0.793 | 1.06 | 0.851 | 0.863 | 0.87 | 1.06 | 0.616 | 0.513 | 0.5 | 0.282
A-427 | 0.346 | 0.417 | 0.273 | 0.292 | 0.278 | 0.592 | 0.586 | 0.586 | 0.583 | 1.13 | 1.04 | 1.14 | 1.06 | 1.06 | 1.03 | 1.06 | 1 | 0.711 | 0.225 | 0.519
NCI-H647 | 0.55 | 0.505 | 0.579 | 0.474 | 0.485 | 0.43 | 0.424 | 0.32 | 0.357 | 1.35 | 1.04 | 1.23 | 0.834 | 0.562 | 0.837 | 0.735 | 0.217 | 0.146 | 0.114 | 0.441
NCI-H1975 | 0.399 | 0.388 |  | 0.37 | 0.411 | 0.404 | 0.356 | 0.324 | 0.385 | 0.768 | 0.561 | 0.611 | 0.561 | 0.279 | 0.902 | 0.812 | 0.475 | 0.422 | 0.155 | 0.365
NCI-H358 | 0.358 | 0.303 | 0.428 |  | 0.281 | 0.217 | 0.207 | 0.212 | 0.192 | 1 | 0.65 | 0.911 | 0.55 | 0.364 | 0.466 | 0.423 | 0.374 | 0.268 | 0.279 | 0.203
